Experimental data reported in patent publication US7897630B2, “5-aryl isoxazolines for controlling invertebrate pests” (E.I. du Pont de Nemours and Company, priority 2005, dated 2011).

Test system: cat flea (Ctenocephalides felis Bouche)
Assay: Test H: control of cat flea on orally dosed CD-1 mouse
Assay type: in vivo
Settings: oral 10 mg/kg, fleas applied 2 hours after dosing, evaluated 48 hours after flea application
Experimental: For evaluating control of the cat flea (Ctenocephalides felis Bouche), a CD-1® mouse (about 30 g, male, obtained from Charles River Laboratories, Wilmington, Mass.) was orally dosed with a test compound in an amount of 10 mg/kg solubilized in propylene glycol/glycerol formal (60:40). Two hours after oral administration of the test compound, approximately 8 to 16 adult fleas were applied to each mouse. The fleas were then evaluated for mortality 48 hours after flea application to the mouse.

Compound: CSc1ccc(C2=NOC(c3cc(Cl)cc(Cl)c3)(C(F)(F)F)C2)cc1Br (racemic) [Compound 205]
- flea mortality: ≥ 20%
